In ChEMBL document CHEMBL5226365, “Xylochemical Synthesis and Biological Evaluation of the Orchidaceous Natural Products Isoarundinin I, Bleochrin F, Blestanol K, and Pleionol” (J Nat Prod, 2023):
pIC50: −log10 of the molar value.

Key:
[1] = Cytotoxicity against human PBMC assessed as cell viability at 100 uM incubated for 72 hrs by resazurin assay; format: toxicity, cell-based
ADR5000 cell line = assay: Cytotoxicity against human CEM/ADR5000 cells overexpressing P-gp assessed as inhibition of cell growth incubated for 72 hrs by resazurin assay; format: functional, cell-based; details: ADR5000, 72 h
CCRF-CEM = assay: Cytotoxicity against human CCRF-CEM cells assessed as inhibition of cell growth incubated for 72 hrs by resazurin assay; format: functional, cell-based
[2] = Resistance index, ratio of IC50 for cytotoxicity against human CEM/ADR5000 cells overexpressing P-gp to IC50 for cytotoxicity against human CCRF-CEM cells; format: functional

SMILES	Activity [1]	pIC50 (ADR5000 cell line)	pIC50 (CCRF-CEM)	Ratio IC50 [2]
COc1cc(C2c3ccc(O)cc3CCc3cc(O)cc(OC)c32)ccc1O (stereo unspecified)	Non-Toxic	4.77	4.73	0.9
COc1cc(O)cc2c1C(c1ccc(O)cc1)c1ccc(O)cc1CC2 (racemic)	Non-Toxic	< 4.00	4.34	
COc1cc(O)cc(CCc2cccc(O)c2)c1Cc1ccc(O)cc1	Non-Toxic	4.22	4.36	1.4
COc1cc(O)c(Cc2ccc(O)cc2)c2c1C(c1ccc(O)cc1)c1ccc(O)cc1CC2 (racemic)	Non-Toxic	4.32	5.17	7.1
COc1cccc2c1C(=O)c1c(O)c3c(c(O)c1C2=O)C[C@@](O)(C(=O)CO)C[C@@H]3O[C@H]1C[C@H](N)[C@H](O)[C@H](C)O1 [DOXORUBICIN]				>1000
